Experiments:
CEM cells [1] = assay: Viability of 3-D CEM cell cultures in Hollow Fiber Bioreactor (HFB), trypan blue; assay type: cell-based, Human; conditions: samples analysed by HPLC
Description: CEM cells (American Type Culture Collection, Manassas, Va.) were maintained in tissue culture flasks and cultured as monolayer in 20 mL of RPMI media containing 10% Fetal Bovine Serum (FBS). When the number of cells in the culture flask reached 5-6×10^6 cells/mL the culture was harvested and then inoculated into six Hollow Fiber Bioreactors (HFB, FiberCells System, Frederick, Md.) and were continuously cultured in 37° C. and 5% CO2. HFB consists of a single, hydrophylic and polysulfone fiber with 0.1 μm diameter pores. The media circulating within the HFB cartridge and polysulphone tubing, at flow rate of 14 mL/min, brings oxygen and nutrients to cells and removes CO2 and other waste. Collagen solution was used to create an extra cellular matrix between the cells and the fiber. The polysulphone fiber was coated with protein by flushing with 10 mL of coating solution containing 1 mg collagen per 1 mL Phosphate Buffered Saline (PBS). The pH was maintained in the extra-capillary space throughout the duration of experiments between 6.8 and 7.0. Due to the perfusion the HFB absorbed sufficient oxygen from the reservoir with fresh media to keep cells alive. The perfusion medium was changed weekly when the glucose level reached 2 g/L measured with a glucometer.
Viability was assessed using trypan blue (K. Takahashi, G. Loo, Biochem. Pharm. 67 (2004) 315-324). Briefly, CEM cells were harvested from HFB, seeded in 6 well microplates and exposed to 0.4% (w/v) trypan blue dye solution. Cell number was determined manually with a hemacytometer chamber (Hausser Scientific, Horsham, Pa.).
Approximately 4×10^4 CEM cells/ml were treated on culture plates and placed for the 72 h incubation with (2-16) and (28-38) derivatives. All compounds were used for in vitro experiments and then the derivatives were selected for HFB studies to treat 10^9 CEM cells/mL in the 3-D cultures. The cells were treated 4 weeks after the cells' inoculation in the HFB. After 72 h, the growth was inhibited over 50% for 20 nM and higher concentrations in cells treated with (6), (13), (28) and (35).
CEM cells, American Type Culture Collection (Manassas, Va.), were maintained in tissue culture flasks and cultured as monolayer in 20 ml of RPMI media containing 10% Fetal Bovine Serum (FBS) and divided from 5×10^5 cells/mL to 2.5×10^4 cells/mL two times per week. When the number of the cells in the culture flask reached 5-6×10^6 cells/ml the culture was harvested and then inoculated into six Hollow Fiber Bioreactors (HFB, FiberCells System Inc., Frederick, Md.) and then continuously cultured in 37° C. and 5% CO2. The HFB consists of a single, hydrophylic and polysulfone fiber with 0.1 μm diameter pores. The media circulate within the HFB cartridge and polysulphone tubing, at flow rate of 14 mL/min, bringing oxygen and nutrients to cells and removing CO2 and other waste. Collagen solution was used to create an extracellular matrix between cells and fiber. The polysulfone fiber was coated with protein by flushing with 10 mL of coating solution containing 1 mg collagen per 1 mL Phosphate Buffered Saline (PBS). In this manner, CEM cells growing originally in suspension build up a 3-D solid tumor. During 4 weeks of culturing, the media were replaced each week.
The number of cells was determined using Trypan blue (Sigma-Aldrich, Oakville, ON) exclusion method (K. Takahashi, G. Loo, Biochem. Pharmacol. 67 (2004) 315-324). Briefly, CEM cells were harvested from HFB, seeded in 6 well microplates and exposed to 0.4% (w/v) trypan blue dye solution. Cell number was determined manually with a hemacytometer chamber (Hausser Scientific, Horsham, Pa.).

[2] = tested on: A549 (Human lung carcinoma); assay: Cytotoxicity testing (MTS) on A549; assay type: cell-based
Description: (§1) Cell lines used were A549 (Human lung carcinoma), HeLa (Human cervical carcinoma), MCF-7 (Human mammary gland adenocarcinoma), CEM (Human T-lymphoblastoid from ALL (Acute lymphoblastic leukemia)), M010B (Human glioma), M006X (Human glioma) and Jurkat (Human T-cell leukemia).
(§2) A series of dilutions were prepared and a wavelength scan of the diluted solution was used to determine the wavelength of maximum absorbance for each compound. Five standardized drug concentrations were scanned at this pre-determined wavelength to obtain an estimate of the compound's extinction coefficient.
(§3) A primary MTS assay was used to test the optimal number of cells for cytotoxicity assays. Cells were trypsinized, counted and introduced into seven lanes of a 96-well plate at different cell numbers (eight replicates per lane). Optimal cell numbers were determined after 72 and 96 hours of growth and were used in subsequent cytotoxicity assays. […] Cell viability was determined using the Cell Titer 96 AQueous One Solution Cell Proliferation Assay (Promega, U.S.A.).
(§4) Fits were performed using a dose-response model ideal for data showing an initial response plateau, a transition region, and a final response plateau.
(§5) [formula] […] Itop is the response obtained at very low/no drug concentration. The data and all parameters were normalized to Itop−Ibot, a measure of the maximum effect of the drug.

[3] = tested on: HeLa (Human cervical carcinoma); assay: Cytotoxicity testing (MTS) on HeLa; assay type: cell-based
Description: as §1, §2, §3, §4, §5

[4] = tested on: MCF-7 (Human mammary gland adenocarcinoma); assay: Cytotoxicity testing (MTS) on MCF-7; assay type: cell-based
Description: as §1, §2, §3, §4, §5

[5] = tested on: CEM (Human T-lymphoblastoid from ALL); assay: Cytotoxicity testing (MTS) on CEM; assay type: cell-based
Description: as §1, §2, §3, §4, §5

M010B (Human glioma) = assay: Cytotoxicity testing (MTS) on M010B; assay type: cell-based
Description: as §1, §2, §3, §4, §5

M006X (Human glioma) = assay: Cytotoxicity testing (MTS) on M006X; assay type: cell-based
Description: as §1, §2, §3, §4, §5

[6] = tested on: A549, HeLa, MCF-7 and CEM cell lines; assay: Cytotoxicity, mean over A549, HeLa, MCF-7 and CEM cell lines; conditions: for IC50 [log10 M] (mean logIC50): mean over A549, HeLa, MCF-7 and CEM cell lines
From the text: as §1, §3, §5
Cytotoxicity screening was performed on a number of cell lines based on the cancer of origin and differing morphologies.

CEM cells [7] = assay: HPLC-UV profile of treated CEM cells; assay type: cell-based, Human; conditions: eluted at 53 min
Description: Digested cell samples were fractionated with a Gold HPLC chromatograph system equipped with a Gold 166 Ultra Violet (UV) Detector and 32-Karat software (Beckman-Coulter, Mississauga, ON, Canada). For reversed-phase HPLC, a Vydac 218 TP54 Protein & Peptide C18 analytical column, 300 Å pore size, 0.46 cm×25 cm (Separation Group, Hesperia, Calif., U.S.A.) was used. The chromatograph was equipped with a Rheodyne injector (5 μL). UV detection was performed at 245 nm. Eluent A consisted of 5% acetonitrile (ACN) water solution and eluent B of 0.01% trifluoroacetic acid in 95% ACN water solution. A linear gradient from 5 to 70% ACN was applied over 60 min.
It was assumed that signals eluted at 30-35 min were unreacted derivatives with variable intensity of 0.1 V for (28) and (35) as well as 0.35 V for (13) and 0.9 V for (6). […] An additional signal eluted at 57 min occurred in samples treated with (35) and (28) (FIGS. 10D and 10E). The signals at 57 min differ at about 5 min in elution present one from cascade of apoptotic protein in treated cells. The peak intensity of 0.3 V (28) and 0.2 V (35) corresponded to viability of cells 38% (28) and 35% (35) and unreacted derivatives 0.1 (28), 0.1 (35), respectively. The undefined additional peaks with very low intensities, less then 0.05 V, are the metabolites of derivatives or unreacted compounds.

Molecule	viability of cell cultures (CEM cells [1])	Fraction of cells that survive at the highest drug concentrations (Ibot) [2]	logIC50 [2] [log10 M]	Fraction of cells that survive at the highest drug concentrations (Ibot) [3]	logIC50 [3] [log10 M]	Fraction of cells that survive at the highest drug concentrations (Ibot) [4]	logIC50 [4] [log10 M]	Fraction of cells that survive at the highest drug concentrations (Ibot) [5]	logIC50 [5] [log10 M]	Fraction of cells that survive at the highest drug concentrations (Ibot) (M010B (Human glioma))	logIC50 (M010B (Human glioma)) [log10 M]	Fraction of cells that survive at the highest drug concentrations (Ibot) (M006X (Human glioma))	logIC50 (M006X (Human glioma)) [log10 M]	average IC50 values compared with colchicine ([6]; average values of Table 3)	IC50 [log10 M] (mean logIC50) [6]	cytotoxicity compared with colchicine ([6]; cytotoxicity assays)	expression of MHC (class I) receptor, HPLC peak intensity (CEM cells [7]) [V]
CCOc1c(OC)c(OC)cc2c1-c1ccc(OC)c(=O)cc1[C@@H](NC(C)=O)CC2 [Compound 6, N-[(7S)-1-(ethoxy)-2,3,10-trimethoxy-9-oxo-5,6,7,9-tetrahydrobenzo[α]heptalen-7-yl]acetamide]	50%±4	0.249 ± 0.030	−7.83 ± 0.10	0.089 ± 0.026	−7.89 ± 0.06	0.605 ± 0.015	−7.42 ± 0.13	−0.062 ± 0.026	−8.64 ± 0.08	0.108 ± 0.013	−7.94 ± 0.04	0.039 ± 0.011	−8.41 ± 0.08	stronger than colchicine	−7.95 ± 0.09		
COc1cc2c(c(OCC(C)C)c1OC)-c1ccc(OC)c(=O)cc1[C@@H](NC(C)=O)CC2 [Compound 7a, N-[(7S)-2,3,10-trimethoxy-1-(2-methylpropoxy)-9-oxo-5,6,7,9-tetrahydrobenzo[α]heptalen-7-yl]acetamide]		0.222 ± 0.026	−6.52 ± 0.13	0.051 ± 0.032	−6.66 ± 0.11	0.406 ± 0.014	−6.17 ± 0.06	0.022 ± 0.020	−6.76 ± 0.08	0.239 ± 0.031	−6.60 ± 0.14	0.197 ± 0.024	−7.12 ± 0.06		−6.53 ± 0.10	moderately better than colchicine	
COc1cc2c(c(OCc3ccc(Cl)cc3)c1OC)-c1ccc(OC)c(=O)cc1[C@@H](NC(C)=O)CC2 [Compound 15]		0.288 ± 0.020	−6.23 ± 0.08	0.039 ± 0.034	−6.22 ± 0.09	0.381 ± 0.024	−6.35 ± 0.12	−0.016 ± 0.032	−6.57 ± 0.11	0.382 ± 0.028	−6.38 ± 0.14	0.058 ± 0.030	−6.45 ± 0.13		−6.34 ± 0.10		
N-[(7S)-2,3,10-trimethoxy-1-((methyl)cyclohexane)-9-oxo-5,6,7,9-tetrahydrobenzo[α]heptalen-7-yl]acetamide [Compound 16]			−4.95 ± 0.07		−5.33 ± 0.11		−5.22 ± 0.08		−5.53 ± 0.10		−5.20 ± 0.08		−5.44 ± 0.12		−5.26 ± 0.09		
COc1cc2c(c(-c3cccnc3)c1OC)-c1ccc(OC)c(=O)cc1[C@@H](NC(C)=O)CC2 [Compound 13, N-[(7S)-2,3,10-trimethoxy-9-oxo-1-((pyridin(3))yl)-5,6,7,9-tetrahydrobenzo[α]heptalen-7-yl]acetamide]	45%±2	0.218 ± 2.644	−4.51 ± 0.32	0.059 ± 0.059	−5.33 ± 0.14	0.364 ± 0.038	−5.19 ± 0.09	−0.026 ± 0.039	−5.50 ± 0.10	0.305 ± 0.053	−4.90 ± 0.09	0.055 ± 0.046	−5.67 ± 0.12		−5.13 ± 0.17		0.05
